Tests used:
[1] = system: production of nitric oxide (NO); experiment: Production of nitric oxide (NO) in cultures of mouse peritoneal cells stimulated with IFN-γ plus LPS (Griess reagent); type: cell-based, mice; details: substance 50 μmol·l^−1, IFN-g plus LPS, 24 h
Procedure, shortened: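 C57BL/6 mouse peritoneal cells (2×10^6/mL) stimulated with IFN-γ (5000 pg/mL) plus LPS (100 pg/mL), compounds at 50 μmol·l^−1. Nitrite measured by Griess reagent after 24 h, expressed as % of stimulated control (set 100%); IC50 is concentration reducing NO by 50%.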

peritoneal cells of mice = experiment: Cell viability of mouse peritoneal cells (WST-1 kit); type: cell-based; details: substance 50 μmol·l^−1, 24 h; for Cell viabilities in % of the controls: Table 3B; for Cell viability in % of the controls: Table 3A
Procedure, shortened: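 C57BL/6 mouse peritoneal cells (1×10^6/mL) cultured 24 h with compounds at 50 μmol·l^−1. Viability read with WST-1 tetrazolium salt and expressed as percent of untreated control cells (100%).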

[2] = system: production of prostaglandin E2 (PGE2); experiment: Production of prostaglandin E2 (PGE2) in cultures of mouse peritoneal cells stimulated with LPS (ELISA kit); type: cell-based, mice; details: for Production of prostaglandins IC50 (μmol · 1^−1) average value and range of values: Table 3B, 6 h; for Production of prostaglandins in % of the controls: Table 3A, substance 50 μmol·l^−1, 6 h
Procedure, shortened: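 C57BL/6 mouse peritoneal cells (3×10^6/mL) stimulated with LPS (10 ng/mL). PGE2 measured by ELISA.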

Compound	Production of nitric oxide in % of the controls ([1]; Table 3B)	Cell viabilities in % of the controls (peritoneal cells of mice)	Production of prostaglandins IC50 (μmol · 1^−1) average value and range of values [2]	Production of nitric oxide in % of the controls ([1]; Table 3A)	Cell viability in % of the controls (peritoneal cells of mice)	Production of prostaglandins in % of the controls [2]
CCCCc1c(-c2cccs2)nc(N)nc1-c1cccs1 [Substance 92]	46.09 ± 7.92; n = 6 % of the controls	102.36 ± 6.45; n = 8 % of the controls	29.52 ± 11.77; n = 4 μmol · 1^−1	–	–	–
CCCCc1c(-c2cccnc2)nc(N)nc1-c1cc2ccccc2o1 [Substance 119]	70.13 ± 10.10; n = 6 % of the controls	76.10 ± 6.23; n = 8 % of the controls	71.89 ± 0.36; n = 2 μmol · 1^−1	–	–	–
CCCCc1c(-c2ccc(OC)cc2)nc(N)nc1-c1cccc2ccccc12 [Substance 134]	33.09 ± 7.25; n = 8 % of the controls	93.40 ± 5.59; n = 12 % of the controls	27.85 ± 10.82; n = 8 μmol · 1^−1	–	–	–
CCCCc1c(-c2ccc(OC)cc2)nc(N)nc1-c1ccsc1 [Substance 109]	73.38 ± 4.58; n = 6 % of the controls	120.58 ± 7.53; n = 8 % of the controls	4.9 ± 1.72; n = 4 μmol · 1^−1	–	–	–
CCCCc1c(-c2ccco2)nc(N)nc1-c1cccs1 [Substance 99]	31.27 ± 2.12; n = 4 % of the controls	55.22 ± 5.10; n = 4 % of the controls	13.25 ± 6.33; n = 4 μmol · 1^−1	–	–	–
CCCCc1c(Cl)nc(NCc2ccco2)nc1Cl [Substance 144]	83.33 ± 11.72; n = 6 % of the controls	150.27 ± 4.96; n = 8 % of the controls	0.20 ± 0.33; n = 4 μmol · 1^−1	–	–	–
CCCCc1c(-c2cccs2)nc(N)nc1-c1cc2ccccc2s1 [Substance 130]	43.43 ± 7.18; n = 10 % of the controls	130.68 ± 8.17; n = 12 % of the controls	56.31 ± 19.61; n = 8 μmol · 1^−1	–	–	–
CCCCc1c(-c2ccc(OC)cc2)nc(N)nc1-c1cccnc1 [Substance 80]	35.18 ± 4.39; n = 4 % of the controls	103.13 ± 4.24; n = 8 % of the controls	41.84 ± 7.54; n = 2 μmol · 1^−1	–	–	–
CCCCc1c(Cl)nc(N)nc1-c1cc2ccccc2o1 [Substance 126]	78.18 ± 9.03; n = 4 % of the controls	102.56 ± 5.92; n = 4 % of the controls	87.25 ± 13.99; n = 2 μmol · 1^−1	–	–	–
CCCCc1c(-c2ccco2)nc(N)nc1-c1cc2ccccc2o1 [Substance 122]	35.04 ± 5.71; n = 6 % of the controls	81.66 ± 4.41; n = 8 % of the controls	68.47 ± 8.71; n = 2 μmol · 1^−1	–	–	–
CCCCc1c(-c2ccc(OC)cc2)nc(N)nc1-c1ccoc1 [Substance 104]	71.20 ± 2.85; n = 6 % of the controls	137.10 ± 2.72; n = 12 % of the controls	57.52 ± 12.44; n = 6 μmol · 1^−1	–	–	–
CCCCc1c(Cl)nc(N)nc1-c1cc2ccccc2s1 [Substance 132]	49.61 ± 6.36; n = 4 % of the controls	84.08 ± 4.71; n = 8 % of the controls	20.76 ± 9.35; n = 4 μmol · 1^−1	–	–	–
CCCCc1c(-c2ccsc2)nc(N)nc1-c1ccsc1 [Substance 114]	70.51 ± 5.78; n = 4 % of the controls	118.67 ± 2.26; n = 8 % of the controls	37.00 ± 16.33; n = 4 μmol · 1^−1	–	–	–
CCCCc1c(-c2ccccc2)nc(N)nc1-c1ccsc1 [Substance 107]	69.69 ± 6.09; n = 4 % of the controls	69.08 ± 1.78; n = 4 % of the controls	68.07 ± 2.56; n = 4 μmol · 1^−1	–	–	–
CCC(C)c1c(Cl)nc(NC=O)nc1Cl (stereo not drawn) [Substance 54]	–	–	–	0.17 ± 0.17 % of the controls	77.51 ± 14.73 % of the controls	30.48 ± 1.79 % of the controls
CCCCc1c(-c2ccncc2)nc(N)nc1-c1cccc2ccccc12 [Substance 137]	58.04 ± 6.68; n = 4 % of the controls	85.07 ± 1.02; n = 4 % of the controls	28.00 ± 9.43; n = 2 μmol · 1^−1	–	–	–
CN(C)C=Nc1nc(Cl)c(-c2ccccc2)c(Cl)n1 [Substance 24]	–	–	–	4.97 ± 2.00 % of the controls	80.00 ± 11.61 % of the controls	18.45 ± 13.68 % of the controls
CCCCc1c(-c2ccsc2)nc(N)nc1-c1cccc2ccccc12 [Substance 140]	30.16 ± 2.96; n = 4 % of the controls	94.34 ± 2.62; n = 4 % of the controls	40.66 ± 6.87; n = 2 μmol · 1^−1	–	–	–
CCCCc1c(-c2ccccc2)nc(N)nc1-c1ccc(OC)cc1 [Substance 72]	55.45 ± 12.92; n = 6 % of the controls	108.35 ± 5.66; n = 8 % of the controls	3.61 ± 0.22; n = 4 μmol · 1^−1	–	–	–
CCCCc1c(-c2cccc3ccccc23)nc(N)nc1-c1cccc2ccccc12 [Substance 141]	57.66 ± 6.53; n = 6 % of the controls	107.73 ± 5.36; n = 8 % of the controls	34.2 ± 8.01; n = 4 μmol · 1^−1	–	–	–
O=CNc1nc(Cl)c(Cc2ccccc2)c(Cl)n1 [Substance 59]	–	–	–	0.15 ± 0.01 % of the controls	58.75 ± 5.34 % of the controls	3.84 ± 0.11 % of the controls
CCCc1c(Cl)nc(N)nc1Cl [Substance 27]	–	–	–	46.98 ± 10.25 % of the controls	87.86 ± 9.18 % of the controls	31.73 ± 4.35 % of the controls
CCCCc1c(-c2ccc(OC)cc2)nc(N)nc1-c1ccc(OC)cc1 [Substance 74]	86.27 ± 4.16; n = 4 % of the controls	98.75 ± 5.63; n = 12 % of the controls	38.22 ± 5.59; n = 2 μmol · 1^−1	–	–	–
CCCCc1c(-c2ccccn2)nc(N)nc1-c1cc2ccccc2s1 [Substance 127]	40.88 ± 6.83; n = 4 % of the controls	130.66 ± 2.87; n = 8 % of the controls	38.26 ± 14.52; n = 8 μmol · 1^−1	–	–	–
CCCCc1c(-c2ccsc2)nc(N)nc1-c1cc2ccccc2o1 [Substance 124]	33.45 ± 13.04; n = 6 % of the controls	94.41 ± 9.01; n = 8 % of the controls	62.48 ± 5.45; n = 2 μmol · 1^−1	–	–	–
CCCCc1c(-c2ccc(OC)cc2)nc(N)nc1-c1ccco1 [Substance 96]	50.99 ± 2.60; n = 4 % of the controls	113.53 ± 4.93; n = 8 % of the controls	43.05 ± 21.74; n = 4 μmol · 1^−1	–	–	–
CCCCc1c(-c2ccc(OC)cc2)nc(N)nc1-c1ccccn1 [Substance 77]	58.20 ± 5.42; n = 6 % of the controls	100.86 ± 11.78; n = 4 % of the controls	13.48 ± 1.94; n = 4 μmol · 1^−1	–	–	–
CCCCc1c(Cl)nc(S)nc1Cl [Substance 149]	24.12 ± 11.22; n = 6 % of the controls	99.14 ± 6.73; n = 8 % of the controls	26.35 ± 10.89; n = 4 μmol · 1^−1	–	–	–

From patent US8883798B2, “Pyrimidine compounds inhibiting the formation of nitric oxide and prostaglandin E2, method of production thereof and use thereof” (Ustav Organicke Chemie a Biochemie Akademie Ved CR, V.V.I., priority 2011, dated 2014)
